From ChEMBL document CHEMBL1122865 (J Med Chem, 1985)

What was measured:
[1] = target: D(2) dopamine receptor (Bos taurus) (UniProt P20288); assay: Compound was tested for its ability to inhibit specific [3H]spiroperidol binding to bovine anterior pituitary homogenate, at 10 uM
[2] = target: D(1A) dopamine receptor (Rattus norvegicus) (UniProt P18901); assay: Tested for its ability to inhibit rat caudate adenylate cyclase (Dopamine receptor D1) at 10 uM
[3] = target: D(1A) dopamine receptor (Rattus norvegicus) (UniProt P18901); assay: Tested for its ability to stimulate rat caudate adenylate cyclase (Dopamine receptor D1) at 10 uM
[4] = organism: Oryctolagus cuniculus; assay: Compound was tested for DA agonistic activity in the isolated perfused rabbit ear artery.; type: functional; settings: read-out: ED50 (the source's name)
[5] = target: D(2) dopamine receptor (Bos taurus) (UniProt P20288); assay: Ability to inhibit specific [3H]spiroperidol binding to bovine anterior pituitary homogenate, at 10 uM
[6] = organism: Oryctolagus cuniculus; assay: The compound was tested for DA agonistic activity in the isolated perfused rabbit ear artery.; type: functional; settings: read-out: ED50 (the source's name)

D(2) dopamine receptor (Bos taurus), sequence (P20288 whole entry, the tested form may be a part): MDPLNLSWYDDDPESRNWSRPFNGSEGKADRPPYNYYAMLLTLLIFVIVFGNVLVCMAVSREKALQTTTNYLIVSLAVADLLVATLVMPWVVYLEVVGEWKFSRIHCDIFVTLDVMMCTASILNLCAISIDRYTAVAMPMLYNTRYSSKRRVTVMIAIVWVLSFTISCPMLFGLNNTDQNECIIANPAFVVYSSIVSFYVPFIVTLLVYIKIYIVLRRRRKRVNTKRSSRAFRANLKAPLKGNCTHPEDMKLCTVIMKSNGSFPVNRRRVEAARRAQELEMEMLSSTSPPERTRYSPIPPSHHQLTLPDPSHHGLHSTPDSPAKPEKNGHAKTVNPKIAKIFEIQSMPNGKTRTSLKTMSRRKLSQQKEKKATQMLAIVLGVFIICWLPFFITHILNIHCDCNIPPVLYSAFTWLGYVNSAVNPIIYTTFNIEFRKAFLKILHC
D(1A) dopamine receptor (Rattus norvegicus), sequence (P18901 whole entry, the tested form may be a part): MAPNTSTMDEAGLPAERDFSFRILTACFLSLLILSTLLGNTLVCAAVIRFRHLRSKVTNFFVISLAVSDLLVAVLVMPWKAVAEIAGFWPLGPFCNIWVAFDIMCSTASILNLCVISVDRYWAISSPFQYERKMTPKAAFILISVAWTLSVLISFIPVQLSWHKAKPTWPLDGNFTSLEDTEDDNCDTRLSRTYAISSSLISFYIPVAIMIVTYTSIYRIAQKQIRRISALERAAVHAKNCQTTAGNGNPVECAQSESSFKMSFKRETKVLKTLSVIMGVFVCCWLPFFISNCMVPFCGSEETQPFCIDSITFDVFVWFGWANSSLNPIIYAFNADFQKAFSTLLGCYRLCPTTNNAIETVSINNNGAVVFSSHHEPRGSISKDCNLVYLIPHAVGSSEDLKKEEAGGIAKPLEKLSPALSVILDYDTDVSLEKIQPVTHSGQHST

SMILES	Kb [1] [nM]	inhibition [2] [%]	Stimulation [3] [%]	EC50 [4] [nM]	Displacement [5] [%]	EC50 [6] [nM]
NCCc1ccc(O)c2nc(O)ccc12	4040	1	27	140	56	
NCCc1cccc2nc(O)ccc12		5	1		21	
CCCN(CCc1ccccc1)CCc1ccc(O)c2nc(O)ccc12	2020	6	0	128	72	
NCCc1ccc(O)c(O)c1 [DOPAMINE]						37
CCCN(CCC)CCc1ccc(O)c2[nH]c(=O)ccc12		0	1	493	19	
CCCN(CCC)CCc1cccc2nc(O)ccc12		0	4		30	
NC1CCc2cc(O)c(O)cc2C1 (stereo not given)						4.6
Oc1ccc(CCNCCc2ccc(O)c3nc(O)ccc23)cc1		6	2	136	42	
CCCN(CCc1ccc(O)cc1)CCc1ccc(O)c2nc(O)ccc12	770	0	0	12.3	78	
CCCN(CCC)CCc1ccc(OC)c2nc(O)ccc12		0	3		6	
COc1ccc(CCN)c2ccc(O)nc12		1	3		9	
CCCN(CCC)CCc1ccc(O)c2c1CCC(=O)N2	15100	0	1	252	40	
COc1ccc(CCNCCc2ccccc2)c2ccc(O)nc12		0	0		9	
